{"source": "patent US12472210B2", "about": "(priority 2019, dated 2025)", "key": {"[1]": {"conditions": "mouse, in vivo"}, "[2]": {"test_system": "subcutaneously transplanted human liver cancer LM3 tumor", "parameters": "species or system BALB/c nude mice", "conditions": "mouse, in vivo"}, "[3]": {"conditions": "mouse, in vivo, ip"}, "[4]": {"test_system": "subcutaneously transplanted human liver cancer LM3 tumor", "parameters": "species or system BALB/c nude mice", "conditions": "mouse, in vivo, ip"}}, "note": "“And” between values parts separate entries of the source, which are not always exact repeats. Identical values can stand only once. Like-named read-outs stand apart in the source and are kept apart here.", "data": [{"smiles": "O=P1(N(CCCl)CCCl)NCCCO1", "note": "(centres unmarked) [cyclophosphamide]", "values": [{"measurement": "Spleen quality", "setting": "[1]", "value": "0.12 ± 0.02", "unit": "g"}, {"measurement": "body weight at the end of the experiment", "setting": "[1]", "value": "18.91 ± 0.46", "unit": "g"}, {"measurement": "Tumor inhibition rate (%)", "setting": "[2]", "value": "79.33% and 79.33 ± 0.10%"}, {"measurement": "Tumor weight", "setting": "[2]", "value": "0.21 ± 0.10", "unit": "g"}, {"measurement": "Spleen index", "setting": "[3]; 10 mg/kg", "value": "1.08 ± 0.12", "unit": "mg/g"}, {"measurement": "Spleen quality", "setting": "[3]; 10 mg/kg", "value": "0.19 ± 0.01", "unit": "g"}, {"measurement": "body weight at the end of the experiment", "setting": "[3]; 10 mg/kg", "value": "18.58 ± 0.41", "unit": "g"}, {"measurement": "Spleen index", "setting": "[3]; 20 mg/kg", "value": "1.01 ± 0.08", "unit": "mg/g"}, {"measurement": "Spleen quality", "setting": "[3]; 20 mg/kg", "value": "0.17 ± 0.01", "unit": "g"}, {"measurement": "body weight at the end of the experiment", "setting": "[3]; 20 mg/kg", "value": "17.54 ± 0.28", "unit": "g"}, {"measurement": "Tumor inhibition rate (%)", "setting": "[4]; 10 mg/kg", "value": "33.21% and 33.21 ± 1.41%"}, {"measurement": "Tumor weight", "setting": "[4]; 10 mg/kg", "value": "0.50 ± 0.02", "unit": "g"}, {"measurement": "Tumor inhibition rate (%)", "setting": "[4]; 20 mg/kg", "value": "62.67% and 62.67 ± 5.81%"}, {"measurement": "Tumor weight", "setting": "[4]; 20 mg/kg", "value": "0.28 ± 0.06", "unit": "g"}]}]}
